Reference: patent US7960377B2 (priority 2008, dated 2011)

Molecular target: human CB1 receptor (Homo sapiens, UniProt P21554)
Experiment: cell-based
Settings: for inverse agonist mark, human CB1 receptor: asterisk at the compound number

Sequence of human CB1 receptor (P21554 whole entry): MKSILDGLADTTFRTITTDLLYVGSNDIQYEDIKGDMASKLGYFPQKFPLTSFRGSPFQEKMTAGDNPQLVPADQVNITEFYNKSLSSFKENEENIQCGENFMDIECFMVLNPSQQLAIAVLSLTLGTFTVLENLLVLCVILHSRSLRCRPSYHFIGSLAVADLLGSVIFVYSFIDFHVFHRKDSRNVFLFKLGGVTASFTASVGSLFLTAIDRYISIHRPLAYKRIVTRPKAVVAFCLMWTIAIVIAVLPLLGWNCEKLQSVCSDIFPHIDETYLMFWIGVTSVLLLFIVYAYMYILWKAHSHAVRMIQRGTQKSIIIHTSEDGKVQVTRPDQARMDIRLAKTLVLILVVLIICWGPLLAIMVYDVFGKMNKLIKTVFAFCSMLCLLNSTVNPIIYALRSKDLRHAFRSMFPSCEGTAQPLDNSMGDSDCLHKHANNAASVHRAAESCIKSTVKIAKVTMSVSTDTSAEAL

Row | SMILES | EC50 [µM] | inverse agonist mark, human CB1 receptor
1 | CN(Cc1ccccc1)C(=O)c1cnc2c(c1)N(S(=O)(=O)c1ccc(C(F)(F)F)cc1)CCO2 [Example 36, N-benzyl-N-methyl-1-(4-(trifluoromethyl)phenylsulf-onyl)-2,3-dihydro-1H-pyrido[2,3-b][1,4]oxazine-7-carboxamide] | > 30 | –
2 | O=C(c1cnc2c(c1)N(S(=O)(=O)c1ccc(Cl)c(Cl)c1)CCO2)N1CC(F)(F)C1 [Example 128, (1-(3,4-dichlorophenyl-sulfonyl)-2,3-dihydro-1H-pyrido[2,3-b][1,4]oxazin-7-yl)(3,3-difluoroazetidin-1-yl)methanone] | > 30 | –
3 | CCN(CC)C(=O)c1cnc2c(c1)N(S(=O)(=O)c1ccc(F)cc1)CCO2 [Example 13, N,N-diethyl-1-(4-fluorophenylsulfonyl)2,3-dihydro-1H-pyrido[2,3-b][1,4]oxazine-7-carboxamide] | > 30 | –
4 | CC(C)(CN1CCCCC1)NC(=O)c1cnc2c(c1)N(S(=O)(=O)c1ccc(C(F)(F)F)cc1)CCO2 [Example 77, N-(2-methyl-1-(piperidin-1-yl)propan-2-yl)-1-(4-(trifluoromethyl)phenylsulf-onyl)-2,3-dihydro-1H-pyrido[2,3-b][1,4]oxazine-7-carboxamide] | > 30 | –
5 | CCCS(=O)(=O)N1CCOc2ncc(C(=O)NC(C)(C)C)cc21 [Example 79, N-tert-butyl-1-(propylsulfonyl)-2,3-dihydro-1H-pyrido[2,3-b][1,4]oxazine-7-carboxamide] | > 30 | –
6 | O=C(c1noc(-c2cnc3c(c2)N(S(=O)(=O)c2ccc(F)cc2)CCO3)n1)N1CCOCC1 [Example 215, (5-(1-(4-fluorophenyl-sulfonyl)-2,3-dihydro-1H-pyrido[2,3-b][1,4]oxazin-7-yl)-1,2,4-oxadiazol-3-yl)(morpholino)methanone] | > 30 | –
7 | O=C(c1cnc2c(c1)N(S(=O)(=O)c1ccc(Cl)c(Cl)c1)CCO2)N1CCC(O)CC1 [Example 127, (1-(3,4-dichlorophenyl-sulfonyl)-2,3-dihydro-1H-pyrido[2,3-b][1,4]oxazin-7-yl)(4-hydroxypiperidin-1-yl)methanone] | > 30 | –
8 | O=C(NCCO)c1cnc2c(c1)N(S(=O)(=O)c1ccc(Cl)c(Cl)c1)CCO2 [Example 114, 1-(3,4-dichlorophenyl-sulfonyl)-N-(2-hydroxyethyl)-2,3-dihydro-1H-pyrido[2,3-b][1,4]oxazine-7-carboxamide] | > 30 | –
9 | CC(C)CNS(=O)(=O)N1CCOc2ncc(C(=O)NC(C)(C)CO)cc21 [Example 181, N-(1-hydroxy-2-methylpropan-2-yl)-1-(N-isobutylsulfamoyl)-2,3-dihydro-1H-pyrido[2,3-b][1,4]oxazine-7-carboxamide] | > 30 | –
10 | CC(C)(C)NC(=O)c1cnc2c(c1)N(S(=O)(=O)Cc1ccc(F)cc1)CCO2 [Example 62, N-tert-butyl-1-(4-fluorobenzylsulfonyl)-2,3-dihydro-1H-pyrido[2,3-b][1,4]oxazine-7-carboxamide] | > 30 | –
11 | CC(C)(C)N(CCC#N)C(=O)c1cnc2c(c1)N(S(=O)(=O)c1ccc(C(F)(F)F)cc1)CCO2 [Example 41, N-tert-butyl-N-(2-cyanoethyl)-1-(4-(trifluoromethyl)phenylsulf-onyl)-2,3-dihydro-1H-pyrido[2,3-b][1,4]oxazine-7-carboxamide] | > 30 | –
12 | CC(C)(N)CNC(=O)c1cnc2c(c1)N(S(=O)(=O)c1ccc(C(F)(F)F)cc1)CCO2 [Example 47, N-(2-amino-2-methylpropyl)-1-(4-(trifluoromethyl)phenylsulf-onyl)-2,3-dihydro-1H-pyrido[2,3-b][1,4]oxazine-7-carboxamide] | > 30 | –
13 | CC(C)(C)NC(=O)c1cnc2c(c1)N(S(=O)(=O)Cc1ccccc1)CCO2 [Example 60, 1-(benzylsulfonyl)-N-tert-butyl-2,3-dihydro-1H-pyrido[2,3-b][1,4]oxazine-7-carboxamide] | > 30 | –
14 | O=C(NC1CCCC1)c1cnc2c(c1)N(S(=O)(=O)c1cccnc1)CCO2 [Example 17, N-cyclopentyl-1-(pyridin-3-ylsulfonyl)-2,3-dihydro-1H-pyrido[2,3-b][1,4]oxazine-7-carboxamide] | > 30 | –
15 | CC(C)(C)NC(=O)c1cnc2c(c1)N(S(=O)(=O)Cc1ccc(Cl)cc1)CCO2 [Example 61, N-tert-butyl-1-(4-chlorobenzylsulfonyl)-2,3-dihydro-1H-pyrido[2,3-b][1,4]oxazine-7-carboxamide] | – | 2, 3, 5, 7, 8, 10, 39, 58, 61*, 69, 93*, 101, 102, 109, 110, 111, 112,
16 | CN(CCO)C(=O)c1cnc2c(c1)N(S(=O)(=O)c1ccc(Cl)c(Cl)c1)CCO2 [Example 120, 1-(3,4-dichlorophenyl-sulfonyl)-N-(2-hydroxy-ethyl)-N-methyl-2,3-dihydro-1H-pyrido[2,3-b][1,4]oxazine-7-carboxamide] | > 30 | –
17 | O=C(NC1CCCC1)c1cnc2c(c1)N(Cc1ccc(F)cc1)C(=O)CO2 [Example 221, N-cyclopentyl-1-(4-fluorobenzyl)-2-oxo-2,3-dihydro-1H-pyrido[2,3-b] [1,4]oxazine-7-carboxamide] | > 30 | –
18 | O=C(c1cnc2c(c1)N(S(=O)(=O)c1ccc(C(F)(F)F)cc1)CCO2)N1CCCCC1CN1CCOCC1 (racemic) [Example 76, +/− (2-(morpholino-methyl)piperidin-1-yl)(1-(4-(trifluoromethyl)-phenylsulfonyl)-2,3-dihydro-1H-pyrido[2,3-b][1,4]oxazin-7-yl)methanone] | > 30 | –
19 | O=C(c1cnc2c(c1)N(S(=O)(=O)c1ccc(Cl)c(Cl)c1)CCO2)N1CCC[C@@H]1CO [Example 122, (R)-(1-(3,4-dichlorophenyl-sulfonyl)-2,3-dihydro-1H-pyrido[2,3-b][1,4]oxazin-7-yl)(2-(hydroxymethyl)pyrrolidin-1-yl)methanone] | > 30 | –
20 | CC(C)CS(=O)(=O)N1CCOc2ncc(C(=O)NC(C)(C)C)cc21 [Example 28, N-tert-butyl-1-(isobutylsulfonyl)-2,3-dihydro-1H-pyrido[2,3-b][1,4]oxazine-7-carboxamide] | > 30 | –
21 | COCCNC(=O)c1cnc2c(c1)N(S(=O)(=O)c1ccc(C(F)(F)F)cc1)CCO2 [Example 51, N-(2-methoxyethyl)-1-(4-(trifluoromethyl)phenysulf-onyl)-2,3-dihydro-1H-pyrido[2,3-b][1,4]oxazine-7-carboxamide] | > 30 | –
22 | O=C(c1cnc2c(c1)N(S(=O)(=O)c1ccc(Cl)c(Cl)c1)CCO2)N1CCC1 [Example 130, azetidin-1-yl(1-(3,4-dichlorophenylsulfonyl)-2,3-dihydro-1H-pyrido[2,3-b][1,4]oxazin-7-yl)methanone] | – | 130*, 136, 141, 142, 149, 156, 157, 163, 164, 168, 173, 183, 195,
23 | CCC(C)(C)NC(=O)c1cnc2c(c1)N(S(=O)(=O)N(C)C)CCO2 [Example 143, 1-(N,N-dimethyl-sulfamoyl)-N-tert-pentyl-2,3-dihydro-1H-pyrido[2,3-b][1,4]oxazine-7-carboxamide] | > 30 | –
24 | O=C(c1cnc2c(c1)N(S(=O)(=O)c1ccccc1)CCO2)N1CCCCC1 [Example 1, (1-(phenylsulfonyl)-2,3-dihydro-1H-pyrido[2,3-b][1,4]oxazin-7-yl)(piperidin-1-yl)methanone] | > 30 | –
25 | O=C(c1cnc2c(c1)N(S(=O)(=O)c1ccc(C(F)(F)F)cc1)CCO2)N1CCCCC1 [Example 49, piperidin-1-yl(1-(4-(trifluoromethyl)phenylsulf-onyl)-2,3-dihydro-1H-pyrido[2,3-b][1,4]oxazin-7-yl)methanone] | > 30 | –
